Patent US20170334804A1, “F-18 LABELED TRACER AND METHODS OF MANUFACTURE” (The General Hospital Corporation, priority 2014, published 2017)

Test system: patients with stable coronary artery disease (CAD)
Assay: PET/CT myocardial perfusion imaging in patients with stable CAD, compared with 99mTc Sestamibi SPECT and CTA
Assay type: in vivo, human
Conditions: for detecting areas of reversible myocardial perfusion: PET with FTPP vs SPECT with 99mTc Sestamibi, baseline and post-adenosine
Procedure: One of the objectives of this study: the PET image properties of FTPP as a myocardial perfusion agent were evaluated in patients with stable coronary artery disease (CAD).
Patients with stable CAD were included in a 3 day study protocol. Safety endpoints included vital signs, 12 lead ECG and clinical laboratory tests. Imaging was performed with Siemens Biograph 64 PET/CT scanner and imaging entailed a CT for positioning, attenuation measurement and evaluation of coronary artery anatomy (day-1). This was followed by baseline and post-adenosine SPECT imaging with ^99mTc Sestamibi. On day 2, 10 mCi of FTPP was administered followed by a second 10 mCi dose of FTPP and PET/CT imaging.

| Structure (SMILES) | image resolution, stress PET vs stress MIBI SPECT (FIG. 2, person with chest pain) | stress images, detection of ischemia (FIG. 3, stress images) | detecting areas of reversible myocardial perfusion | extraction from blood (patients with stable CAD) | heart uptake over time (patients with stable CAD) | imaging window after injection (patients with stable CAD) | target-to-background ratios (patients with stable CAD) | blood flow imaging properties (patients with stable CAD, preliminary findings) | safety (vital signs, 12 lead ECG, clinical laboratory tests) |
| --- | --- | --- | --- | --- | --- | --- | --- | --- | --- |
| Fc1ccc([P+](c2ccccc2)(c2ccccc2)c2ccccc2)cc1 [FTPP, 4-[^18F]Fluorophenyltriphenylphosphonium ion] | high resolution | confirming ischemia | similarly effective | rapid | stable | ≤ 30 min | high | excellent | safe |
| [C-]#[N+]CC(C)(C)OC.[C-]#[N+]CC(C)(C)OC.[C-]#[N+]CC(C)(C)OC.[C-]#[N+]CC(C)(C)OC.[C-]#[N+]CC(C)(C)OC.[C-]#[N+]CC(C)(C)OC.[Tc] [^99mTc Sestamibi, reference compound] |  |  | similarly effective |  |  |  |  |  |  |
